Test results published in patent publication US20240041854A1, “COLD MEDICINE AND ANTIVIRAL MEDICINE” (OTSUKA PHARMACEUTICAL FACTORY, INC., priority 2020, published 2024).
Where two headings read alike, the source gives them in different places.

Assays:
Assay type in all cases: cell-based
[1] = tested on: human coronavirus HCoV-229E; set-up: unit not given here; conditions: MRC-5 cells, qPCR
[2] = tested on: SARS-CoV-2 (hCoV-19/Germany/BY-ChVir-929/2020); assay: Pharmacological Test 3: SARS-CoV-2 infection of Vero E6 host cells, virus amount in culture supernatant by qPCR (Ct value); conditions: for Ct value (average value): Vero E6 cells, SARS-CoV-2, culture supernatant
Description: Compound X described above was used as the test compound. Vero E6 (ATCC CRL1586) was used as a host cell, and this was cultured on a 96-well plate until a monolayer sheet was obtained. Next, the medium was removed, 50 μL of a mixed suspension medium of SARS-CoV-2 (hCoV-19/Germany/BY-ChVir-929/2020) and a predetermined dose of the test compound was added, and the resultant was allowed to stand at 37° C. for 1 hour. The virus concentration was 150 PFU/well. Subsequently, the medium was removed, and the cells were washed with PBS. Then, a new medium mixed with the same dose of the test compound as before was added, and the cells were cultured at 37° C. overnight. After culturing, the virus amount in the culture supernatant was quantified by qPCR. As the primers and probe, the new coronavirus N1 protein-specific primers and probe specified by the Centers for Disease Control and Prevention (CDC) were used, and the conditions were also in accordance with the conditions specified by the CDC. The number of PCR cycles (Ct value) until the signal intensity of the PCR product reached a predetermined intensity (threshold value) was determined.

[3] = tested on: human coronavirus OC43 (ATCC VR1588); assay: Pharmacological Test 2: OC43 infection of HCT-8 host cells, virus RNA quantified by RT-qPCR; set-up: unit not given here; conditions: HCT-8 cells
Description: Compound X described above was used as the test compound. […] Comparative Compound 2 used herein was chloroquine phosphate, which has temporarily been approved by the US Food and Drug Administration (FDA) for emergency use in patients with new coronavirus infection.

NC(=O)c1nccnc1O [Comparative compound, 3-Hydroxypyrazine-2-carboxamide, reference compound]
Virus amount ([1]; 1.6 μM test substance): 1.E+07 | Virus amount ([1]; 3.1 μM test substance): 7.E+06 | Virus amount ([1]; 6.3 μM test substance): 9.E+06 | Virus amount ([1]; 12.5 μM test substance): 5.E+06 | Virus amount ([1]; 25 μM test substance): 2.E+07 | Virus amount ([1]; 50 μM test substance): 2.E+07 | Virus amount ([1]; 100 μM test substance): 2.E+07

COc1cc(OCc2ncc(C(F)(F)F)cc2F)ccc1-c1nc(-c2ccc(F)nc2)[nH]c1Cl [Compound X, 2-[[4-(5-chloro-2-(6-fluoropyridin-3-yl)-1H-imidazol-4-yl)-3-methoxyphenoxy]methyl]-3-fluoro-5-(trifluoromethyl) pyridine]
Virus amount ([1]; 0.78 μM test substance): 9.E+06 | Virus amount ([1]; 1.58 μM test substance): 1.E+07 | Virus amount ([1]; 3.1 μM test substance): 5.E+06 | Virus amount ([1]; 6.3 μM test substance): 5.E+06 | Virus amount ([1]; 12.5 μM test substance): 1.E+06 | Virus amount ([1]; 25 μM test substance): 4.E+02 | Virus amount ([1]; 50 μM test substance): 3.E+03 | Ct value (average value) ([2]; 0.78 μM test compound): 21.0 | Ct value (average value) ([2]; 1.56 μM test compound): 21.1 | Ct value (average value) ([2]; 3.13 μM test compound): 20.9 | Ct value (average value) ([2]; 6.25 μM test compound): 21.7 | Ct value (average value) ([2]; 12.50 μM test compound): 24.7 | Ct value (average value) ([2]; 25.00 μM test compound): 24.8 | Ct value (average value) ([2]; 50.00 μM test compound): 24.5 | infection-suppressing effect on SARS-CoV-2 ([2]; in words, Vero E6): showed an infection-suppressing effect on SARS-CoV-2 | Virus amount ([3]; 0.78 μM test compound): 3.E+08 | Virus amount ([3]; 1.6 μM test compound): 5.E+08 | Virus amount ([3]; 3.1 μM test compound): 6.E+08 | Virus amount ([3]; 6.2 μM test compound): 1.E+08 | Virus amount ([3]; 12.5 μM test compound): 2.E+05 | Virus amount ([3]; 25 μM test compound): 1.E+05 | Virus amount ([3]; 50 μM test compound): 1.E+05

COc1cc(OCc2ncc(C(F)(F)F)cc2F)ccc1-c1nc(-c2ccc(F)nc2)[nH]c1Br [Compound Y, 2-[[4-(5-bromo-2-(6-fluoropyridin-3-yl)-1H-imidazol-4-yl)-3-methoxyphenoxy]methyl]-3-fluoro-5-(trifluoromethyl)pyridine]
Virus amount ([1]; 0.78 μM test substance): 2.E+08 | Virus amount ([1]; 1.6 μM test substance): 1.E+08 | Virus amount ([1]; 3.1 μM test substance): 1.E+08 | Virus amount ([1]; 6.2 μM test substance): 1.E+08 | Virus amount ([1]; 12.5 μM test substance): 8.E+07 | Virus amount ([1]; 25 μM test substance): 4.E+04 | Virus amount ([1]; 50 μM test substance): 3.E+04

Fc1ccc(-c2nc(-c3ccc(OCc4ncc(C(F)(F)F)cc4F)cc3Cl)c(Cl)[nH]2)cn1 [Compound Z, 2-[[3-chloro-4-(5-chloro-2-(6-fluoropyridin-3-yl)-1H-imidazol-4-yl)phenoxy]methyl]-3-fluoro-5-(trifluoromethyl)pyridine]
Virus amount ([1]; 0.78 μM test substance): 3.E+08 | Virus amount ([1]; 1.58 μM test substance): 1.E+08 | Virus amount ([1]; 3.1 μM test substance): 3.E+08 | Virus amount ([1]; 6.3 μM test substance): 3.E+08 | Virus amount ([1]; 12.5 μM test substance): 8.E+07 | Virus amount ([1]; 25 μM test substance): 2.E+05 | Virus amount ([1]; 50 μM test substance): 4.E+04

NC(=O)c1nc(F)c[nH]c1=O [compound 1, favipiravir]
Virus amount ([3]; 0.78 μM test compound): 4.E+08 | Virus amount ([3]; 1.58 μM test compound): 3.E+08 | Virus amount ([3]; 3.1 μM test compound): 3.E+08 | Virus amount ([3]; 6.3 μM test compound): 3.E+08 | Virus amount ([3]; 12.5 μM test compound): 2.E+08 | Virus amount ([3]; 25 μM test compound): 2.E+08 | Virus amount ([3]; 50 μM test compound): 6.E+08

CCN(CC)CCCC(C)Nc1ccnc2cc(Cl)ccc12 (stereo not drawn) [compound 2, chloroquine phosphate]
Virus amount ([3]; 0.78 μM test compound): 2.E+08 | Virus amount ([3]; 1.58 μM test compound): 3.E+08 | Virus amount ([3]; 3.1 μM test compound): 4.E+08 | Virus amount ([3]; 6.3 μM test compound): 6.E+08 | Virus amount ([3]; 12.5 μM test compound): 6.E+07 | Virus amount ([3]; 25 μM test compound): 3.E+06 | Virus amount ([3]; 50 μM test compound): 9.E+06
